Measurements: publication PMC10166890, “Screening for DAX1/EWS‐FLI1 functional inhibitors identified dihydroorotate dehydrogenase as a therapeutic target for Ewing's sarcoma” (Cancer Medicine, 2023)

Legend:
TC‐71‐derived tumors = experiment: TC‐71 xenograft in SCID mice; assay type: in vivo, mouse; settings: 10, 30, or 100 mg/kg orally once daily; less sensitive than others
Protocol: (§1) All animal studies were performed in accordance with Standards for Proper Conduct sof Animal Experiments at Kyowa Kirin Co., Ltd., under the approval of the company's Institutional Animal Care and Use Committee. Male C.B17/Icr‐scid/scidJcl (SCID) mice (5 weeks old) were purchased from CREA Japan (Tokyo, Japan). K‐733 was suspended in 0.5% (w/v) methylcellulose 400 (MC400; FUJIFILM Wako Pure Chemical) and orally administered to mice once daily. Ewing's cells were suspended in Dulbecco's phosphate‐buffered saline (DPBS; Thermo Fisher Scientific, Waltham, MA, USA) and injected subcutaneously into the ventral side of mice at 5 × 10^6 cells/0.1 mL/mouse for A‐673 and TC‐71 and 1 × 10^7 cells/0.1 mL/mouse for CADO‐ES1 and SK‐ES‐1. In experiments using TC‐71 cells, 0.3 mg of anti‐asialo GM1 antibody (FUJIFILM Wako Pure Chemical) was injected intraperitoneally 1 day before TC‐71 injection. The tumor size and body weight were measured every 3 or 4 days. The tumor volume was calculated using the following equation: Tumor volumemm^3=DL×DS×DS×1/2, where DL and DS represent the long diameter and short diameter, respectively. The pharmacokinetic analysis of K‐733 is described in Materials and Methods S2.

DAX1 = DAX1 reporter assay (KJMGER8/pAGal9p4‐hDAX1 cells, luciferase); assay type: cell-based, human
Protocol: pAGal9‐hDAX1 and pAPPRE×10‐Luc + were transfected into KJMGER8 cells by electroporation using a Gene Pulser (Bio‐Rad Laboratories, Hercules, CA, USA), and clones stably expressing the DAX1 and luciferase reporter genes under the control of PPRE were selected. The obtained clone was termed KJMGER8/pAGal9p4‐hDAX1. KJMGER8/pAGal9p4‐hDAX1 cells (1.8 × 10^4 cells/well) were seeded in 384‐well white plates (Greiner Japan, Tokyo, Japan) and cultured in RPMI1640‐IPTSG medium containing 10 nM 17β‐estradiol (E2; Sigma‐Aldrich), dissolved in ethanol, with test compounds at concentration ranges of 0.01 to 10,000 nM or vehicle (dimethyl sulfoxide [DMSO]). The final DMSO concentration was ≤0.3%, and the ethanol concentration was 0.1%. The next day, Blight‐Glo Luciferase Assay Reagent (Promega, Madison, WI, USA) was added to the medium. The luciferase activity was measured using a TopCount NXT system (PerkinElmer, Waltham, MA, USA). IC50 values were calculated using XLfit version 4 (ID Business Solutions, Surrey, UK).
A DAX1 reporter assay system was constructed with the estrogen‐inducible Namalwa cell (KJMGER8 cell) by co‐transfection with pAGal9‐hDAX1 and pAPPRE×10‐Luc+.[18] In the obtained cell line KJMGER8/pAGal9p4‐hDAX1, DAX1 expression is induced by E2 treatment, and the expressed DAX1 increases luciferase expression. Reporter activity was increased by E2 treatment as expected (Figure S2). […] Using this DAX1 reporter assay system, small‐molecule compounds in an in‐house library were screened to obtain DAX1 inhibitors, and K‐234 was identified (Figure 1).
pAGal9-hDAX1 and pAPPRE×10-Luc+ were transfected into KJMGER8 cells by electroporation using a Gene Pulser (Bio-Rad Laboratories, Hercules, CA, USA), and clones stably expressing the DAX1 and luciferase reporter genes under the control of PPRE were selected. The obtained clone was termed KJMGER8/pAGal9p4-hDAX1. KJMGER8/pAGal9p4-hDAX1 cells (1.8×10^4 cells/well) were seeded in 384-well white plates (Greiner Japan, Tokyo, Japan) and cultured in RPMI1640-IPTSG medium containing 10 nM 17β-estradiol (E2; Sigma-Aldrich), dissolved in ethanol, with test compounds at concentration ranges of 0.01 to 10000 nM or vehicle (dimethyl sulfoxide [DMSO]). The final DMSO concentration was ≤0.3%, and the ethanol concentration was 0.1%. The next day, Blight-Glo Luciferase Assay Reagent (Promega, Madison, WI, USA) was added to the medium. The luciferase activity was measured using a TopCount NXT system (PerkinElmer, Waltham, MA, USA). IC50 values were calculated using XLfit version 4 (ID Business Solutions, Surrey, UK)

[1] = system: EWS‐FLI1 target gene expression; experiment: EWS‐FLI1 target gene expression in A‐673 tumors after 14‐day treatment; assay type: in vivo, mouse; settings: after 14‐day oral treatment
Protocol: Total RNA was extracted using the RNeasy Plus Mini kit (Qiagen, Valencia, CA, USA) according to the manufacturer's protocol. cDNA was synthesized from 1 μg of total RNA using a SuperScript VILO cDNA synthesis kit (Thermo Fisher Scientific). Real‐time PCR was carried out using TaqMan Fast Universal PCR Master Mix (Thermo Fisher Scientific).
as §1
FIGURE 8 K‐733 exerts an anti‐tumor effect in mice bearing Ewing's sarcoma. (A) Plasma concentration‐time profiles of K‐733 in mice after a single oral administration of K‐733. Each plot represents the mean of duplicate measurements. (B) Antitumor effect of K‐733 on A‐673 cells. Indicated doses of K‐733 were orally administered once daily for 14 days. Each plot represents the mean of n = 5 and SE. C, Influence of K‐733 on EWS‐FLI1‐related genes. Tumors were sampled after 14 days oral administration of K‐733. Each plot represents the mean of n = 5 and SE. […]

SK‐ES‐1 = SK‐ES‐1 xenograft in SCID mice; assay type: in vivo, mouse; settings: 10, 30, or 100 mg/kg orally once daily
Protocol: as §1

CADO‐ES1 = CADO‐ES1 xenograft in SCID mice; assay type: in vivo, mouse; settings: 10, 30, or 100 mg/kg orally once daily
Protocol: as §1

SMILES: Cc1nc(-c2ccc(C3c4[nH]c5ccc(Cl)cc5c4CCN3C(=O)Oc3ccccc3)cc2)no1 (centres unmarked) [K-733, phenyl 6‐chloro‐1‐(4‐(5‐methyl‐1,2,4‐oxadiazol‐3‐yl)phenyl)‐1,3,4,9‐tetrahydro‐2H‐pyrido[3,4‐b]indole‐2‐carboxylate]
- Tumor growth, TC‐71 xenograft (TC‐71‐derived tumors): reduced dose‐dependently
- IC50 (DAX1; Homo sapiens, KJMGER8/pAGal9p4‐hDAX1 cells, 10 nM E2, overnight, read-out: IC50 for inhibition of DAX1 reporter activity): 9.01 nM
- Effect of uridine addition on inhibition of DAX1 reporter activity (DAX1; uridine 100 μM, overnight): completely abrogated
- DAX1 mRNA levels in tumors [1]: no marked effect
- mRNA levels of IGFBP3 and DKK1 in tumors [1]: increased
- mRNA levels of NKX2‐2 in tumors [1]: decreased
- Tumor growth, SK‐ES‐1 xenograft (SK‐ES‐1): reduced dose‐dependently
- Tumor growth, CADO‐ES1 xenograft (CADO‐ES1): reduced dose‐dependently
